In US10646528B2, “Method for preparing extract of genus Panax including wild ginseng or ginseng, or cambial meristematic cells derived from genus panax or extract thereof containing rare ginsenosides in high quantity” (WELLKEY HOLDINGS LIMITED, priority 2014, dated 2020):

Tested on: C57BL/6J mice
Assay: oral glucose tolerance test (OGTT)
Type: in vivo
Conditions: 2 g/kg D-glucose oral
Protocol: The anti-diabetic effect of the wild ginseng CMCs prepared in Example 2 was examined by an oral glucose tolerance test OGTT. Wild ginseng CMCs were heat-treated at 95° C. for 48 hours, and an extract obtained by extracting the CMCs with 70% ethanol was administered orally. C57BL/6J mice (8-week-old, male) were fasted overnight. The weights and blood glucose levels of the C57BL/6J mice were measured, and then 2 g/kg of D-glucose was administered orally to the mice. At this time, the mice were fed with drinking water, but were not fed with feed. A change in the blood glucose level was measured at […] for 2 hours.
The […] was compared with resistant maltodextrin (RMD) and a red ginseng extract (RG-200), which are known as health supplements in the anti-diabetic field.

Resistant maltodextrin [RMD]
Blood glucose level (Time 0, 2 g/kg-treated diabetic group): 169 mg/dL
Blood glucose level (Time 30, 2 g/kg-treated diabetic group): 485 mg/dL
Blood glucose level (Time 60, 2 g/kg-treated diabetic group): 350 mg/dL
Blood glucose level (Time 120, 2 g/kg-treated diabetic group): 282 mg/dL
